Data on nine compounds can be found in BindingDB's records for doi:10.1016/s0960-894x(02)00382-7 (Novartis Pharma, 2002).

The experiment deals with Substance-P receptor (Bos taurus). The experiment is described as follows: inhibition of [3H]Sar-SP binding to Tachykinin receptor 1 of bovine retina membranes.
Compound `CN(C)CCCNC(=O)c1ccc(-c2ccc(Cl)cc2)c(N(C)C(=O)c2cc(C(F)(F)F)cc(C(F)(F)F)c2)c1` [2-[(3,5-Bis-trifluoromethyl-benzoyl)-methyl-amino]-4'-chloro-biphenyl-4-carboxylic acid (3-dimethylamino-propyl)-amide] came in with a 50% inhibitory concentration (IC50) of 1 nM.
Regarding `CN(C(=O)c1cc(C(F)(F)F)cc(C(F)(F)F)c1)c1cc(C(=O)N[C@@H]2CCCCNC2=O)ccc1-c1ccc(Cl)cc1`, the IC50 turned out to be 2.7 nM.
On to `CN(C)C(=O)c1ccc(-c2ccc(Cl)cc2)c(N(C)C(=O)c2cc(C(F)(F)F)cc(C(F)(F)F)c2)c1` [2-[(3,5-Bis-trifluoromethyl-benzoyl)-methyl-amino]-4'-chloro-biphenyl-4-carboxylic acid dimethylamide], for which the IC50 stood at 4 nM.
In turn, `CN(C(=O)c1cc(C(F)(F)F)cc(C(F)(F)F)c1)c1cc(C(=O)N[C@@H]2CCCCNC2=O)ccc1-c1ccc(Cl)c(Cl)c1` registered an IC50 of 0.8 nM.
In turn, `COc1cc(C(=O)N(C)c2cc(C(=O)N[C@@H]3CCCCNC3=O)ccc2-c2ccc(Cl)cc2)cc(OC)c1OC` returned an IC50 of 13 nM.
On to `CN(C(=O)c1cc(C(F)(F)F)cc(C(F)(F)F)c1)c1cc(C(=O)NC2CCCCC2)ccc1-c1ccc(F)cc1` [2-[(3,5-Bis-trifluoromethyl-benzoyl)-methyl-amino]-4'-fluoro-biphenyl-4-carboxylic acid cyclohexylamide], for which the half-inhibitory concentration (IC50) was found to be 34 nM.
In the case of `COc1cc(C(=O)Nc2cc(C(=O)NC3CCCCNC3=O)ccc2-c2ccc(Cl)cc2)cc(OC)c1OC` (centres undefined) [4'-Chloro-2-(3,4,5-trimethoxy-benzoylamino)-biphenyl-4-carboxylic acid (2-oxo-azepan-3-yl)-amide], the half-inhibitory concentration (IC50) was determined as 0.7 nM. This IC50 is about 49-fold lower than that of the compound before.
On to `Cc1ccc(-c2ccc(C(=O)N[C@@H]3CCCCNC3=O)cc2N(C)C(=O)c2cc(C(F)(F)F)cc(C(F)(F)F)c2)cc1`, for which the IC50 was 6 nM.
With `CN(C(=O)c1cc(C(F)(F)F)cc(C(F)(F)F)c1)c1cc(C(=O)N[C@@H]2CCCCNC2=O)ccc1-c1ccc(F)cc1`, the half-maximal inhibitory concentration (IC50) is 1 nM.
